These results are taken from patent US20240092761A1, “QUINAZOLINE COMPOUNDS AND METHODS OF USE” (IAMBIC THERAPEUTICS, INC., priority 2022, published 2024).

What all share (format): biochemical
One assay has as its target CDK4/Cyclin D1 (Homo sapiens (Human), UniProt P11802). The assay can be described thus: CDK4/Cyclin D1 Mobility Shift Assay (MSA). As to conditions: 0.2 mM ATP, read-out: CDK4/ CyclinD1 MSA IC50. The text has this:
CDK4/Cyclin D1 Mobility Shift Assay (MSA)
The purpose CDK4/Cyclin D1 assay is to evaluate the inhibition (% inhibition and IC50 values) in the presence of small molecule inhibitors by using a fluorescence based microfluidic mobility shift assay. CDK4/Cyclin D1 catalyzes the production of ADP from ATP that accompanies the phosphoryl transfer to the substrate peptide 5-FAM-Dyrktide (5-FAM-RRRFRPASPLRGPPK) (Perkin Elmer Peptide 34). The mobility shift assay (MSA) electrophoretically separates the fluorescently labelled peptides (substrate and phosphorylated product) following the kinase reaction. Both substrate and product are measured, and the ratio of these values is used to generate % conversion of substrate to product by the LabChip EZ Reader. Typical reaction solutions contained 2% DMSO (+/−inhibitor), 10 mM MgCl2, 1 mM EGTA, 0.05% BSA, 2 mM DTT, 0.2 mM ATP, 0.01% Brig-35, 1.5 uM 5-FAM-Dyrktide, 2.5 nM CDK4/Cyclin D1 in 50 mM HEPES buffer at pH 7.5. The reaction was initiated with the addition of substrate solution, following a 30-minute pre-incubation of enzyme and inhibitor at 22° C. in the reaction mix. The reaction was stopped after 180 minutes by the addition of 75 uL of 500 mM EDTA and measured on a Perkin Elmer EZ reader instrument. IC50 determinations were made from a plot of the fractional velocity as a function of inhibitor concentration fit to the 4 parameters IC50 equation.

The next assay concerns the target CDK6/Cyclin D3 (Homo sapiens (Human), UniProt Q00534). The assay can be described thus: CDK6/Cyclin D3 ADP-Glo Kinase Assay. As to conditions: 100 uM ATP, read-out: CDK6/ CyclinD3 IC50. In outline:
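Luminescent ADP-Glo read-out of ADP produced, used to fit IC50 (4-parameter equation on fractional velocity against inhibitor concentration). Kinase reaction: enzyme and inhibitor together 30 min, then ATP-containing substrate added for 90 min, all at room temperature.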

A further assay deals with CDK1/Cyclin B1 (Homo sapiens (Human), UniProt P06493). The assay can be described thus: CDK1/Cyclin B1 ADP-Glo Kinase Assay. The settings on record: 80 uM ATP. In outline: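 Luminescent ADP-Glo detection of ADP produced over 90 min at room temperature. Enzyme complex 4.917 nM, pre-exposed 30 min to inhibitor; ATP 80 µM (near Km 78.6 µM), substrate 0.75 µM, HEPES pH 7.5, 2% DMSO. Fractional velocity fitted to 4-parameter IC50 equation.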
CDK1/Cyclin B1, sequence (P06493 whole entry): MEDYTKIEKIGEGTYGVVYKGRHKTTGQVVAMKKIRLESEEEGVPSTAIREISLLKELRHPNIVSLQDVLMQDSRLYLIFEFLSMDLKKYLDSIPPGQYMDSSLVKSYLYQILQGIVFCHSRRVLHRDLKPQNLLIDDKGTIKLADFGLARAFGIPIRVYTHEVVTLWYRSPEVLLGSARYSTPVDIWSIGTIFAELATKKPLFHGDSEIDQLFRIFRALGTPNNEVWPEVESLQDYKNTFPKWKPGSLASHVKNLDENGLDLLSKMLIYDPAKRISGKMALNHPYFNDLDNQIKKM
CDK1/Cyclin B1, sequence (P14635 whole entry partner): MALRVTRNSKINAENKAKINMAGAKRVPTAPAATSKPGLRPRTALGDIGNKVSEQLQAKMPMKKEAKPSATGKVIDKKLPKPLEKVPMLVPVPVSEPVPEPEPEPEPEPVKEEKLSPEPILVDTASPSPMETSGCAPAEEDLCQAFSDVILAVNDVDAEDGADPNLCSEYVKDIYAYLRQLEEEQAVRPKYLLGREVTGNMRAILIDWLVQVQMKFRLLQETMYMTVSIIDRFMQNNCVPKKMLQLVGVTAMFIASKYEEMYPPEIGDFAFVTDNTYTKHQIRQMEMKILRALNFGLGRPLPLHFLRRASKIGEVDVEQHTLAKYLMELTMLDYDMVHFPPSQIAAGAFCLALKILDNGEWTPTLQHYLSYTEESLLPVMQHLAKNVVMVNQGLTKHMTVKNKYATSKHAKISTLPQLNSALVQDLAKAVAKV
(In general: ADP-Glo first removes unused ATP, then detects ADP through luciferase.)

For assay [1], the target named is CDK2/Cyclin E1 full length (Homo sapiens (Human), UniProt P24941). Description: CDK2/Cyclin E1 Full Length ADP-Glo Kinase Assay. As to conditions: 20 uM ATP, read-out: CDK2/ CyclinE1 IC50. An outline of the steps: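 ADP-Glo luminescence read-out of ADP formed by 0.328 nM wild-type full-length CDK2/Cyclin E1, 90 min at room temperature with 0.75 uM substrate and 20 uM ATP (Km 64.78 uM), after 30 min enzyme–inhibitor pre-incubation; 50 mM HEPES pH 7.5, 2% DMSO. Four-parameter IC50 fit.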

CDK4/Cyclin D1, sequence (P11802 whole entry): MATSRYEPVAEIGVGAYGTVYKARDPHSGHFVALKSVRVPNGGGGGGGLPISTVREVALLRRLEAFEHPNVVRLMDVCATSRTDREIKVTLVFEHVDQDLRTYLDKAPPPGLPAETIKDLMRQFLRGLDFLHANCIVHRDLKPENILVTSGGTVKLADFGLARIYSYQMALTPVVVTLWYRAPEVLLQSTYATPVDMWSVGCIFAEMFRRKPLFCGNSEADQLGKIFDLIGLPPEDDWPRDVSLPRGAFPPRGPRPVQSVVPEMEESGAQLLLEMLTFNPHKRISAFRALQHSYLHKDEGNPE
CDK4/Cyclin D1, sequence (P24385 whole entry partner): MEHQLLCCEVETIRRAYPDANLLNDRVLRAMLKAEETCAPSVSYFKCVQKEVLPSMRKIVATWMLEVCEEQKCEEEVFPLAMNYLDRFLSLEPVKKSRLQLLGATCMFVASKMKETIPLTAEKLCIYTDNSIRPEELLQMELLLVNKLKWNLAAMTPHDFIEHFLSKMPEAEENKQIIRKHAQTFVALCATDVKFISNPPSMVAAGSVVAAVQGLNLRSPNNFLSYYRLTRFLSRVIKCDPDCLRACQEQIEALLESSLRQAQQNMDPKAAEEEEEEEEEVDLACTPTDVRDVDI
CDK6/Cyclin D3, sequence (Q00534 whole entry): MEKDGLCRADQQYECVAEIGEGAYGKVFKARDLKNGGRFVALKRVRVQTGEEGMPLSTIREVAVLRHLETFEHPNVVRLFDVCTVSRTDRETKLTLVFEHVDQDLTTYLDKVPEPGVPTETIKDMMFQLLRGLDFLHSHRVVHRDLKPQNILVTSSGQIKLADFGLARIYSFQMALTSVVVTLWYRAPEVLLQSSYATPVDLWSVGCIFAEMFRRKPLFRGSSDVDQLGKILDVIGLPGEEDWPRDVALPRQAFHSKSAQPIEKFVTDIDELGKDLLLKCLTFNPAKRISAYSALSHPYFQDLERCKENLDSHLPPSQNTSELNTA
CDK6/Cyclin D3, sequence (P30281 whole entry partner): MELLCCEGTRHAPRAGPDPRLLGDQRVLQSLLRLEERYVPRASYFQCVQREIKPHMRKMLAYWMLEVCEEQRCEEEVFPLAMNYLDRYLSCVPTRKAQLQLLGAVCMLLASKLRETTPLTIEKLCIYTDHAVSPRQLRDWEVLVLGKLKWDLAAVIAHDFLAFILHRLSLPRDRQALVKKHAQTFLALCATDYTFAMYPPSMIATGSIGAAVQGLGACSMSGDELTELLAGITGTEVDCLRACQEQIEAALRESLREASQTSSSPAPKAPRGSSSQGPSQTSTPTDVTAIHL

Consider `CCN1CC2(C1)CN(c1ccc(Nc3ncc4cccc(N5CC6(C5)CC(F)(F)C6)c4n3)nc1)C2` [Example 49, 8-(6,6-difluoro-2-azaspiro[3.3]heptan-2-yl)-N-(5-(6-ethyl-2,6-diazaspiro[3.3]heptan-2-yl)pyridin-2-yl)quinazolin-2-amine], for which the IC50 is below 0.2 µM on CDK4/Cyclin D1, 0.2 to 0.5 µM at CDK6/Cyclin D3, above 2 µM at CDK1/Cyclin B1 and above 2 µM in assay [1].

For `CS(=O)(=O)N1CCC(Nc2ncc3cccc(N4CC5(CCOCC5)C4C4CC4)c3n2)CC1` (centres unmarked) [Example 16, 8-(1-cyclopropyl-7-oxa-2-azaspiro[3.5]nonan-2-yl)-N-(1-(methylsulfonyl)piperidin-4-yl)quinazolin-2-amine], the IC50 is 0.5 to 2 µM at CDK4/Cyclin D1, above 2 µM on CDK6/Cyclin D3, above 2 µM at CDK1/Cyclin B1 and below 0.2 µM in assay [1].

Take `CS(=O)(=O)N1CCC(Nc2ncc3cccc(N4CCN(C5COC5)CC4)c3n2)CC1` [Example 11, N-(1-(methylsulfonyl)piperidin-4-yl)-8-(4-(oxetan-3-yl)piperazin-1-yl)quinazolin-2-amine]: the IC50 on CDK4/Cyclin D1 was 0.5 to 2 µM; at CDK6/Cyclin D3, above 2 µM; at CDK1/Cyclin B1 it was above 2 µM; in assay [1] it was 0.5 to 2 µM.

Regarding `CS(=O)(=O)N1CCC(Nc2ncc3cccc(N4CCN(C5CC5)CC4)c3n2)CC1` [Example 13, 8-(4-cyclopropylpiperazin-1-yl)-N-(1-(methylsulfonyl)piperidin-4-yl)quinazolin-2-amine], the IC50 is 0.2 to 0.5 µM on CDK4/Cyclin D1, 0.5 to 2 µM on CDK6/Cyclin D3, above 2 µM at CDK1/Cyclin B1 and below 0.2 µM in assay [1].

On to `CS(=O)(=O)N1CCC(Nc2ncc3cccc(N4CCCC5(COC5)C4)c3n2)CC1` [Example 8, N-(1-(methylsulfonyl)piperidin-4-yl)-8-(2-oxa-6-azaspiro[3.5]nonan-6-yl)quinazolin-2-amine], for which the IC50 was 0.5 to 2 µM on CDK4/Cyclin D1, 0.5 to 2 µM at CDK6/Cyclin D3, above 2 µM on CDK1/Cyclin B1 and 0.2 to 0.5 µM in assay [1].

With `CCN(CC)C1CCN(c2cccc3cnc(NC4CCN(S(C)(=O)=O)CC4)nc23)CC1` [Example 20, 8-(4-(diethylamino)piperidin-1-yl)-N-(1-(methylsulfonyl)piperidin-4-yl)quinazolin-2-amine], the IC50 was 0.2 to 0.5 µM at CDK4/Cyclin D1, 0.5 to 2 µM at CDK6/Cyclin D3, above 2 µM at CDK1/Cyclin B1 and below 0.2 µM in assay [1].

Turning to `CC(=O)N1CC2(CCN(c3cccc4cnc(NC5CCN(S(C)(=O)=O)CC5)nc34)C2)C1` [Example 5, 1-(6-(2-((1-(methylsulfonyl)piperidin-4-yl)amino)quinazolin-8-yl)-2,6-diazaspiro[3.4]octan-2-yl)ethan-1-one], the IC50 on CDK4/Cyclin D1 was 0.5 to 2 µM; on CDK6/Cyclin D3, 0.5 to 2 µM; against CDK1/Cyclin B1 it was above 2 µM; in assay [1], 0.2 to 0.5 µM.

Take `CS(=O)(=O)N1CCC(Nc2ncc3cccc(N4CCC5(CCC(F)(F)C5)C4)c3n2)CC1` (centres unmarked) [Example 34, 8-(7,7-difluoro-2-azaspiro[4.4]nonan-2-yl)-N-(1-(methylsulfonyl)piperidin-4-yl)quinazolin-2-amine]: the IC50 on CDK4/Cyclin D1 was below 0.2 µM; at CDK6/Cyclin D3, 0.2 to 0.5 µM; on CDK1/Cyclin B1 it was 0.5 to 2 µM; in assay [1], below 0.2 µM.

`CS(=O)(=O)N1CCC(Nc2ncc3cccc(N4CCN(S(C)(=O)=O)CC4)c3n2)CC1` [Example 12, 8-(4-(methylsulfonyl)piperazin-1-yl)-N-(1-(methylsulfonyl)piperidin-4-yl)quinazolin-2-amine]: the IC50 on CDK4/Cyclin D1 was 0.2 to 0.5 µM; at CDK6/Cyclin D3, 0.5 to 2 µM; against CDK1/Cyclin B1 it was above 2 µM; in assay [1], 0.2 to 0.5 µM.

`CS(=O)(=O)N1CCC(Nc2ncc3cccc(N4CCN(CC5CC5)CC4)c3n2)CC1` [Example 17, 8-(4-(cyclopropylmethyl)piperazin-1-yl)-N-(1-(methylsulfonyl)piperidin-4-yl)quinazolin-2-amine]: the IC50 on CDK4/Cyclin D1 is 0.2 to 0.5 µM; on CDK6/Cyclin D3 it was 0.5 to 2 µM; against CDK1/Cyclin B1 it was above 2 µM; in assay [1] it was below 0.2 µM.

With `CN1CCN(C2CCN(c3cccc4cnc(NC5CCN(S(C)(=O)=O)CC5)nc34)C2)CC1` (centres unmarked) [Example 29, 8-(3-(4-methylpiperazin-1-yl)pyrrolidin-1-yl)-N-(1-(methylsulfonyl)piperidin-4-yl)quinazolin-2-amine], the IC50 on CDK4/Cyclin D1 is 0.5 to 2 µM; on CDK6/Cyclin D3, above 2 µM; against CDK1/Cyclin B1, above 2 µM; in assay [1] it was 0.2 to 0.5 µM.

On to “N-(1-(methyl sulfonyl) piperidin-4-yl)-8-(2,6-diazaspiro[3.4]octan-2-yl) quinazolin-2-amine [Example 32]”, for which the IC50 on CDK4/Cyclin D1 was 0.2 to 0.5 µM; at CDK6/Cyclin D3, 0.5 to 2 µM; against CDK1/Cyclin B1, above 2 µM; in assay [1], below 0.2 µM.

In the case of `CC(=O)N1CCC2(CC1)CCN(c1cccc3cnc(NC4CCN(S(C)(=O)=O)CC4)nc13)C2` [Example 25, 1-(2-(2-((1-(methylsulfonyl)piperidin-4-yl)amino)quinazolin-8-yl)-2,8-diazaspiro[4.5]decan-8-yl)ethan-1-one], the IC50 on CDK4/Cyclin D1 was below 0.2 µM; at CDK6/Cyclin D3 it was 0.2 to 0.5 µM; at CDK1/Cyclin B1, above 2 µM; in assay [1], below 0.2 µM.

`CS(=O)(=O)N1CCC(Nc2ncc3cccc(N4CCC5(CCC(F)(F)CC5)C4)c3n2)CC1` [Example 28, 8-(8,8-difluoro-2-azaspiro[4.5]decan-2-yl)-N-(1-(methylsulfonyl)piperidin-4-yl)quinazolin-2-amine]: the IC50 is below 0.2 µM at CDK4/Cyclin D1, below 0.2 µM at CDK6/Cyclin D3, above 2 µM at CDK1/Cyclin B1 and below 0.2 µM in assay [1].

With `CS(=O)(=O)N1CCC(Nc2ncc3cccc(N4CCC5(COC5)C4)c3n2)CC1` [Example 22, N-(1-(methylsulfonyl)piperidin-4-yl)-8-(2-oxa-6-azaspiro[3.4]octan-6-yl)quinazolin-2-amine], the IC50 on CDK4/Cyclin D1 is below 0.2 µM; on CDK6/Cyclin D3, below 0.2 µM; against CDK1/Cyclin B1, 0.5 to 2 µM; in assay [1], below 0.2 µM.

In the case of `CS(=O)(=O)N1CCC(Nc2ncc3cccc(N4CCOC5(CC5)C4)c3n2)CC1` [Example 9, N-(1-(methylsulfonyl)piperidin-4-yl)-8-(4-oxa-7-azaspiro[2.5]octan-7-yl)quinazolin-2-amine], the IC50 at CDK4/Cyclin D1 was 0.5 to 2 µM; on CDK6/Cyclin D3 it was 0.2 to 0.5 µM; against CDK1/Cyclin B1, above 2 µM; in assay [1] it was 0.2 to 0.5 µM.

In the case of `CS(=O)(=O)N1CCC(Nc2ncc3cccc(N4CC5CC(C4)O5)c3n2)CC1` [Example 30, 8-(6-oxa-3-azabicyclo[3.1.1]heptan-3-yl)-N-(1-(methylsulfonyl)piperidin-4-yl)quinazolin-2-amine], the IC50 on CDK4/Cyclin D1 was below 0.2 µM; on CDK6/Cyclin D3 it was 0.2 to 0.5 µM; at CDK1/Cyclin B1, 0.5 to 2 µM; in assay [1] it was below 0.2 µM.

Turning to `CS(=O)(=O)N1CCC(Nc2ncc3cccc(N4CCCC4)c3n2)CC1` [Example 2, N-(1-(methylsulfonyl)piperidin-4-yl)-8-(pyrrolidin-1-yl)quinazolin-2-amine], the IC50 on CDK4/Cyclin D1 is below 0.2 µM; on CDK6/Cyclin D3, below 0.2 µM; on CDK1/Cyclin B1, 0.5 to 2 µM; in assay [1] it was below 0.2 µM.

For `CS(=O)(=O)N1CCC(Nc2ncc3cccc(N4CCCC5(CCOC5)C4)c3n2)CC1` (centres unmarked) [Example 7, N-(1-(methylsulfonyl)piperidin-4-yl)-8-(2-oxa-7-azaspiro[4.5]decan-7-yl)quinazolin-2-amine], the IC50 on CDK4/Cyclin D1 was 0.2 to 0.5 µM; on CDK6/Cyclin D3, 0.5 to 2 µM; against CDK1/Cyclin B1 it was above 2 µM; in assay [1], below 0.2 µM.

Take `CS(=O)(=O)N1CCC(Nc2ncc3cccc(N4CCC5(CCN(S(C)(=O)=O)C5)C4)c3n2)CC1` (centres unmarked) [Example 23, 8-(7-(methylsulfonyl)-2,7-diazaspiro[4.4]nonan-2-yl)-N-(1-(methylsulfonyl)piperidin-4-yl)quinazolin-2-amine]: the IC50 is below 0.2 µM on CDK4/Cyclin D1, below 0.2 µM on CDK6/Cyclin D3, above 2 µM against CDK1/Cyclin B1 and below 0.2 µM in assay [1].
